Data reported in US20100048671A1, “INHIBITION OF THE 44 KILODALTON ISOFORM OF PIM-1 KINASE RESTORES APOPTOSIS INDUCED BY CHEMOTHERAPEUTIC DRUGS IN CANCER CELLS” (priority 2005, published 2010).
Read-outs that look alike come from different tables or passages of the source.

Tests used:
Assay type in all cases: cell-based, human
[1] = system: LNCaP cells; test: Drug sensitivity assay (WST-1 cell viability) of lenti-virus infected LNCaP cells treated with doxorubicin; details: for viability at 0.1 µg/mL: Homo sapiens, LNCaP, read-out: cells remained viable
Procedure: FIG. 5A: LNCaP cells infected with lenti-virus encoding Flag-Pim-1S, Pim-1L, Pim-1LKM (kinase-deficient mutant) or vector control were treated with doxorubicin (0.1 ug/ml) for the times as indicated. Cell viability was determined by the WST-1 assay. The data were expressed as the mean of triplicates of the doxorubicin-treated samples relative to the untreated controls. * p<0.01 compared with the vector control. The expression of the Pim-1 proteins encoded by the lenti-viruses was determined by immunoblotting with anti-Flag antibody. […] The response to doxorubicin was determined at 20 hour as above. * p<0.01 compared with the vector control; ** p<0.01 compared with Pim-1L alone. Expression of Flag-Pim-1L and T7-EtkKQ was monitored by immunoblotting with anti-Flag and anti-T7 antibody, respectively. FIG. 5C: LNCaP cells infected with the lenti-viruses encoding the indicated proteins as in 5A were treated with 10-100 nM mitoxantrone for 48 h; cell viability was determined as in 5A. * p<0.01 compared with the vector control. FIG. 5D: Etk mediates Pim-1L-induced resistance to mitoxantrone. LNCaP cell were infected with the lenti-viruses and the mitoxatrone response was determined. * p<0.01 compared with the vector control; ** p<0.01 compared with Pim-1L alone. […] LNCaP cells were transfected with the plasmids as indicated. The association of Etk with p53 was determined by immunoprecipitation with anti-p53 and followed by immunoblotting with anti-T7 antibody. The expression of p53, Etk or Pim-1 in these cells was monitored by immunoblotting with anti-p53, anti-T7 and anti-Flag antibody, respectively.
An increase of Etk activity confers drug resistance to apoptosis caused by chemotherapeutic agents in LNCaP cells (20), including doxorubicin and cisplatin. By contrast, P53 binding to Etk decreases Etk activity permits apoptosis. However, the mechanism by which Etk is activated was not known. […] As is shown in FIG. 5A, treatment of LNCaP cells with doxorubicin induced rapid apoptosis as was expected. […] Over-expression of Pim-1S conferred some initial protection against drug-induced apoptosis with about 80% cell survival at 20 h. However, such protection was not sustained until 40 hours. […] In this experiment, LNCaP cells were infected with Lenti-virus encoding Flag-Pim-1 S, Pim-1L, Pim-1LKM (kinase-deficient mutant) or vector control for 24h.
LNCaP cells were infected with the lentiviruses encoding the proteins as indicated by using the protocol described previously (19). At 48 hour post-infection, the cells were seeded into the 96 well plates (3×10^4/well). Doxorubicin or mitoxantrone was added in the medium after 24 h. The effects of doxorubicin on the viability of cells were measured after 20-48 hour by the WST-1 assay (Roche Molecular Biochemicals). The viability rates are expressed as means±SD of the triplicate for each experiment. An aliquot of cells was lysed and followed by immunoblotting with anti-T7 or anti-Flag to monitor the transfection efficiency.

[2] = system: LNCaP cells; test: Induction of Pim-1 expression by IL-6 (immunoblotting with monoclonal anti-Pim-1 antibody); details: serum starved LNCaP cells; 25 ngml IL-6, 24 hour, 37 degrees
Excerpt: FIG. 1A: Induction of Pim-1 expression by IL-6 in LNCaP cells. FIG. 1B: The effects of neutralizing antibody against IL-6 on the protein level of Pim-1 in PC3 cells. FIG. 1C: Expression of the two isoforms of Pim-1 by the EST clones in transfected LNCaP, 22Rv1 and PC3 cells FIG. 1D: The N-terminal unique sequence in human 44 kD Pim-1. Part of the sequence of the 5′ end of Pim-1 cDNA in the EST clones is shown. The putative alternative translation initiation site CUG and the start codon AUG are in boldface. FIG. 1E: Alignment of the unique N-terminal sequence in the 44 kD Pim-1 from human and mouse origins. Proline-rich motifs are underlined and bold. The translation initiation sites of the two isoforms are shown by arrows.
Induction of Pim-1 expression by IL-6 was assessed in serum starved LNCaP cells that were treated with 25 ngml IL-6 for 24 hour at 37 degrees. The level of Pim-1 protein was examined by immunoblotting with a monoclonal anti-Pim-1 antibody (Top). The same blot was then probed with anti-actin to monitor the sample loading (Bottom). […] One embodiment of the present invention is directed to the isolated human 44 kD isoform identified by SEQ ID NO. 4 or a functional equivalent or variant thereof and its use in screening assays. We are the first to isolate and describe the gene for the 44 kD isoforms identified in SEQ ID NO. […]

[3] = system: Pim-1L; test: Threonine phosphorylation of endogenous BCRP after Pim-1 siRNA (immunoprecipitation with anti-BCRP, immunoblotting with anti-phosphothreonine); details: MCF7/MX cells; lenti-virus encoded siRNA vs vector control
Excerpt: MCF7-MX cell lysates infected with lenti-virus encoding Vector control and Pim-1 SiRNA(SiPim-1) were subjected to immunoprecipitation with monoclonal BCRP antibody, followed by immunoblotting with anti-phosphothreonine (αpThr).
(§1) The phosphorylation of BCRP is therapeutically significant because it […] BCRP from causing resistance to chemotherapeutic agents. […] Downregulating Pim-1L expression by a specific siRNA also sensitized the prostate cancer cell line CWR-R1 to apoptosis induced by the chemotherapeutic agents mitoxantrone, topotecan and docetaxel (FIG. 12). The siRNA target sequence for inhibiting Pim-1L expression used to inhibit Pim-1L expression is sequence is: 5′ GCAGGACAGUGCUUGAUAC 3′ identified as SEQ ID NO. 3, as is described in a previous study (29, the entire contents of which is hereby incorporated by reference as if fully set forth herein). This siRNA is targeted at nucleotides 1540-1558 of SEQ ID NO. 1.
The transfected cells were lysed in the buffer (20 mM TrisHCl pH 7.4, 150 mM NaCl, 1 mM EDTA, 1 mM EGTA, 1% Triton X-100, 1 mM Na3VO4, 1 mg/ml aprotinin, 1 mg/ml leupterin and 1 mM PMSF). Insoluble material was removed by centrifugation, and antibodies were added to lysates and incubated for 1-3 hour at 4° C. […]

[4] = system: LNCaP cells over-expressing BCRP; test: Drug sensitivity (WST-1) of LNCaP cells over-expressing BCRP infected with lenti-virus encoding Pim-1 SiRNA; details: MX (0.5 μM) or TPT (0.1 μM), 2 days
Procedure: FIG. 13A: LNCaP cells infected with lenti-virus encoding vector control, BCRP, Pim-1SiRNA or both were treated with the indicated drugs MX (0.5 μM) or TPT (0.1 μM) for 2 days. Cell viability was determined using the WST-1 assay FIG. 13B: Immunoprecipitation was performed by using anti-BCRP.

[5] = system: CWR-R1 cells; test: Drug sensitivity (WST-1) of CWR-R1 cells infected with lenti-virus encoding Pim-1 SiRNA; details: mitoxantrone (2 μM), topotecan (5 μM) or docetaxel (50 nM), 2 days
Procedure: FIG. 12A: CWR-R1 cells infected with lenti-virus encoding vector control and Pim-1 SiRNA were treated with MX (2 μM), TPT (5 μM) or DTX (50 nM), respectively for 2 days. Cell viability was determined using the WST-1 assay. FIG. 12B: immunoprecipitation performed by using anti-BCRP.
as §1

[6] = system: MCF7-MX cells; test: Drug sensitivity (WST-1) of MCF7-MX cells infected with lenti-virus encoding Pim-1 SiRNA; details: Flavopiridol (15 μM) or DTX (50 μM), 2 days
Procedure: FIG. 11A: MCF7-MX cells infected with lenti-virus encoding vector control and Pim-1 SiRNA were treated with Flavopiridol (15 μM) or DTX (50 μM) as indicated for 2 days. Cell viability was determined using the WST-1 assay. P<0.05 FIG. 11B: expression levels of Pim-1, BCRP and actin analyzed by immunoblotting with the respective antibodies.
as §1

`COc1cccc2c1C(=O)c1c(O)c3c(c(O)c1C2=O)C[C@@](O)(C(=O)CO)C[C@@H]3O[C@H]1C[C@H](N)[C@H](O)[C@H](C)O1` [doxorubicin] was tested, and the viability at 0.1 µg/mL ([1]; 20 h) was ~50%, the viability at 0.1 µg/mL ([1]; 40 h) was > 70% and the apoptotic cells detected ([1]; LNCaP cells expressing Pim-1L, doxorubicin 0.1 ug/ml, 20 hours post-treatment) was “Virtually no apoptotic cells were detected”. For the same molecule, the cells that survived ([1]; LNCaP cells expressing the empty vector or kinase-inactive Pim-1LKM, doxorubicin 0.1 ug/ml, 40 hour treatment) was 20% and the cell survival ([1]; LNCaP cells over-expressing Pim-1S, doxorubicin 0.1 ug/ml, 20 h) was “about 80%”.

For “IL-6: interleukin 6, cytokine used to induce Pim-1 expression”, the “expression of the 44 kD Pim-1 protein” value [2] was “induced”.

With “5′ GCAGGACAGUGCUUGAUAC 3′ (lentivirus encoded, further chemistry not given here; listed as Homo sapiens) [siRNA, 1, lenti-virus encoded]” the “phosphorylation of BCRP” value [3] was “significantly reduced”, the “BCRP-mediated resistance to mitoxantrone and topotecan” value [4] was “able to reduce or compromise BCRP-mediated resistance” and the “sensitivity to apoptosis induced by chemotherapeutic agents” value [5] was “sensitized”. For the same molecule, the BCRP-mediated drug resistance [6] was “inhibited BCRP-mediated drug resistance”.
